Results on 1 molecule are retold here after ChEMBL document CHEMBL4706749, “Development of Fluorescence Imaging Probes for Labeling COX-1 in Live Ovarian Cancer Cells” (ACS Med Chem Lett, 2021).

The nature of series [1]: Drug uptake in human COX1-negative HCA7 cells at 10 uM incubated for 30 mins by Hoechst-33258 staining based confocal laser scanning microscopic analysis. In kind it is ADME, cell-based. The note with it: hca7, 0.5 h.
Series [2] can be described thus: Drug uptake in human OVCAR-3 cells by measuring perinuclear fluorescence staining at 10 uM incubated for 30 mins by Hoechst-33258 staining based confocal laser scanning microscopic analysis. The class given is ADME, cell-based. To be noted: ovcar-3, 0.5 h.

The structures appear in SMILES notation.

Take `O=C(O)c1ccc(-n2nc(-c3ccco3)cc2-n2cc(CNc3ccc([N+](=O)[O-])c4nonc34)nn2)cc1`: the results for the Drug uptake result in series [1] and in series [2] were “Not Active” and “Active”, respectively.
